Results published in US11759462B2, “Spirocyclic compounds as tryptophan hydroxylase inhibitors” (priority 2013, dated 2023).
Read-outs that look alike come from different tables or passages of the source.

Target: T1, Recombinant human TPH1 (MBP tagged) (Homo sapiens, UniProt P17752)
T1 construct: cloning full length human TPH1 cDNA in to a bacterial pMAL-c5E expression vector; made in house; host or cells: E. coli BL21 (DE3)
T1 sequence (P17752 1-444): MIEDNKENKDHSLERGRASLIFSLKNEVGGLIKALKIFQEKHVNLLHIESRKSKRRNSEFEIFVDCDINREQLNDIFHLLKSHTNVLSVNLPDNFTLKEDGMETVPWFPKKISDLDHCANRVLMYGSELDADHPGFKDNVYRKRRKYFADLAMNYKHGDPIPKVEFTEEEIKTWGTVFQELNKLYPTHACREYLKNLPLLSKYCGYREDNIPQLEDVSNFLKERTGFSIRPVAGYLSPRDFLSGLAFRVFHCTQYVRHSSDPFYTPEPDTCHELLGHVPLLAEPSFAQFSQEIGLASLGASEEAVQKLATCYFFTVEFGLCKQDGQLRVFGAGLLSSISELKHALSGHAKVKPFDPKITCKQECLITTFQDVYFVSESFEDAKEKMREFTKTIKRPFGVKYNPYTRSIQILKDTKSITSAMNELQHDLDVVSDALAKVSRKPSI
Experiment: TPH1 in vitro inhibition assay (kinetic fluorescence)
Type: biochemical
Summary of the method: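 Final mix: 15 nM MBP-TPH1, 30 μM Trp, 36 μM 6-methyltetrahydropterin, 25 μM ferrous ammonium sulfate, 50 mM MES pH 7.1, 1% DMSO, room temperature.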

[1] = read-out: TPH1 Range (TPH1 inhibition IC50)
[2] = TPH1 Range (TPH1 inhibition IC50)

| Structure (SMILES) | IC50 [1] | IC50 [2] |
| --- | --- | --- |
| CCCS(=O)(=O)c1cccc(-c2cc(Cl)ccc2[C@@H](Oc2cc(N3CCC4(CC3)CN[C@H](C(=O)O)C4)nc(N)n2)C(F)(F)F)c1 [Example 34k, (S)-8-(2-amino-6-((R)-1-(5-chloro-3′-(propylsulfonyl)-[1,1′-biphenyl]-2-yl)-2,2,2-trifluoroethoxy)pyrimidin-4-yl)-2,8-diazaspiro[4.5]decane-3-carboxylic acid] | 0.05 to 0.3 µM | – |
| CCOC(=O)c1cccc(-c2cc(Cl)ccc2[C@@H](Oc2cc(N3CCC4(CC3)CN[C@H](C(=O)O)C4)nc(N)n2)C(F)(F)F)c1 [Example 35, (S)-8-(2-amino-6-((R)-1-(5-chloro-3′-(ethoxycarbonyl)-[1,1′-biphenyl]-2-yl)-2,2,2-trifluoroethoxy)pyrimidin-4-yl)-2,8-diazaspiro[4.5]decane-3-carboxylic acid] | 0.05 to 0.3 µM | – |
| Nc1nc(O[C@H](c2ccc(-c3coc4ccccc34)cc2)C(F)(F)F)cc(N2CCC3(CC2)CN[C@H](C(=O)O)C3)n1 [Example 55cz, (S)-8-(2-amino-6-((R)-1-(4-(benzofuran-3-yl)phenyl)-2,2,2-trifluoroethoxy)pyrimidin-4-yl)-2,8-diazaspiro[4.5]decane-3-carboxylic acid] | 0.05 to 0.3 µM | – |
| Nc1nc(O[C@@H](c2ccc(Cl)cc2-c2ccccc2)C(F)(F)F)cc(N2CCC3(CC2)CN[C@@H](C(=O)O)C3)n1 [Example 54i, (R)-8-(2-amino-6-((S)-1-(5-chloro-[1,1′-biphenyl]-2-yl)-2,2,2-trifluoroethoxy)pyrimidin-4-yl)-2,8-diazaspiro[4.5]decane-3-carboxylic acid] | – | 3 to 10 µM |
| Cc1cccc(-c2cc(Cl)ccc2[C@@H](Oc2cc(N3CCC4(CC3)CN[C@H](C(=O)O)C4)nc(N)n2)C(F)(F)F)n1 [Example 34i, (S)-8-(2-amino-6-((R)-1-(4-chloro-2-(6-methylpyridin-2-yl)phenyl)-2,2,2-trifluoroethoxy)pyrimidin-4-yl)-2,8-diazaspiro[4.5]decane-3-carboxylic acid] | – | 0.05 to 0.3 µM |
| CCOc1cccc(-c2cc(Cl)ccc2[C@@H](Oc2cc(N3CCC4(CC3)CN[C@H](C(=O)O)C4)nc(N)n2)C(F)(F)F)c1 [Example 34ah, (S)-8-(2-amino-6-((R)-1-(5-chloro-3′-ethoxy-[1,1′-biphenyl]-2-yl)-2,2,2-trifluoroethoxy)pyrimidin-4-yl)-2,8-diazaspiro[4.5]decane-3-carboxylic acid] | < 0.05 µM | – |
| Nc1nc(O[C@H](c2ccc(Cl)cc2-c2cccc3[nH]cnc23)C(F)(F)F)cc(N2CCC3(CC2)CN[C@H](C(=O)O)C3)n1 [Example 34cp, (S)-8-(6-((R)-1-(2-(1H-benzo[d]imidazol-4-yl)-4-chlorophenyl)-2,2,2-trifluoroethoxy)-2-aminopyrimidin-4-yl)-2,8-diazaspiro[4.5]decane-3-carboxylic acid] | 0.05 to 0.3 µM | – |
| CC(C)c1ccc(-c2ccc([C@@H](Oc3cc(N4CCC5(CC4)CN[C@H](C(=O)O)C5)nc(N)n3)C(F)(F)F)cc2)cc1 [Example 55cj, (S)-8-(2-amino-6-((R)-2,2,2-trifluoro-1-(4′-isopropyl-[1,1′-biphenyl]-4-yl)ethoxy)pyrimidin-4-yl)-2,8-diazaspiro[4.5]decane-3-carboxylic acid] | 0.3 to 3 µM | – |
| Cc1ccn(-c2cc(-c3ccc(C)c(C)c3)ccc2[C@H](Oc2cc(N3CCC4(CC3)CN[C@H](C(=O)O)C4)nc(N)n2)C(F)(F)F)n1 [Example 54k, (S)-8-(2-amino-6-((S)-1-(3′,4′-dimethyl-3-(3-methyl-1H-pyrazol-1-yl)-[1,1′-biphenyl]-4-yl)-2,2,2-trifluoroethoxy)pyrimidin-4-yl)-2,8-diazaspiro[4.5]decane-3-carboxylic acid] | – | 0.05 to 0.3 µM |
| CN1CCc2cc(-c3ccc([C@@H](Oc4cc(N5CCC6(CC5)CN[C@H](C(=O)O)C6)nc(N)n4)C(F)(F)F)cc3)ccc2C1=O [Example 55bj, (S)-8-(2-amino-6-((R)-2,2,2-trifluoro-1-(4-(2-methyl-1-oxo-1,2,3,4-tetrahydroisoquinolin-6-yl)phenyl)ethoxy)pyrimidin-4-yl)-2,8-diazaspiro[4.5]decane-3-carboxylic acid] | – | < 0.05 µM |

Second part, led by results:

| IC50 [1] | Structure (SMILES) | IC50 [2] |
| --- | --- | --- |
| < 0.05 µM | COc1ncc(-c2ccc([C@@H](Oc3cc(N4CCC5(CC4)CN[C@H](C(=O)O)C5)nc(N)n3)C(F)(F)F)c(-n3ccc(C)n3)c2)cn1 [Example 1r, (S)-8-(2-amino-6-((R)-2,2,2-trifluoro-1-(4-(2-methoxypyrimidin-5-yl)-2-(3-methyl-1H-pyrazol-1-yl)phenyl)ethoxy)pyrimidin-4-yl)-2,8-diazaspiro[4.5]decane-3-carboxylic acid] | – |
| < 0.05 µM | Cc1ccn(-c2cc(-c3ccc(C(F)(F)F)c(Cl)c3)ccc2[C@@H](Oc2cc(N3CCC4(CC3)CN[C@H](C(=O)O)C4)nc(N)n2)C(F)(F)F)n1 [Example 1bl, (S)-8-(2-amino-6-((R)-1-(3′-chloro-3-(3-methyl-1H-pyrazol-1-yl)-4′-(trifluoromethyl)-[1,1′-biphenyl]-4-yl)-2,2,2-trifluoroethoxy)pyrimidin-4-yl)-2,8-diazaspiro[4.5]decane-3-carboxylic acid] | – |
| < 0.05 µM | CCCOc1ccc(-c2ccc([C@@H](Oc3cc(N4CCC5(CC4)CN[C@H](C(=O)O)C5)nc(N)n3)C(F)(F)F)c(-n3ccc(C)n3)c2)cc1F [Example 1bz, (S)-8-(2-amino-6-((R)-2,2,2-trifluoro-1-(3′-fluoro-3-(3-methyl-1H-pyrazol-1-yl)-4′-propoxy-[1,1′-biphenyl]-4-yl)ethoxy)pyrimidin-4-yl)-2,8-diazaspiro[4.5]decane-3-carboxylic acid] | – |
| 0.05 to 0.3 µM | CC(C)(C)c1ccn(-c2cc(Cl)ccc2[C@@H](Oc2cc(N3CCC4(CC3)CN[C@H](C(=O)O)C4)nc(N)n2)C(F)(F)F)n1 [Example 10pa, (S)-8-(2-amino-6-((R)-1-(2-(3-(tert-butyl)-1H-pyrazol-1-yl)-4-chlorophenyl)-2,2,2-trifluoroethoxy)pyrimidin-4-yl)-2,8-diazaspiro[4.5]decane-3-carboxylic acid] | – |
| < 0.05 µM | Cc1ccn(-c2cc(-c3ccc(CO)c(C)c3)ccc2[C@@H](Oc2cc(N3CCC4(CC3)CN[C@H](C(=O)O)C4)nc(N)n2)C(F)(F)F)n1 [Example 1cr, (S)-8-(2-amino-6-((R)-2,2,2-trifluoro-1-(4′-(hydroxymethyl)-3′-methyl-3-(3-methyl-1H-pyrazol-1-yl)-[1,1′-biphenyl]-4-yl)ethoxy)pyrimidin-4-yl)-2,8-diazaspiro[4.5]decane-3-carboxylic acid] | – |
| < 0.05 µM | Cc1ccn(-c2cc(-c3ccc(C(=O)N(C)C)cc3)ccc2[C@@H](Oc2cc(N3CCC4(CC3)CN[C@H](C(=O)O)C4)nc(N)n2)C(F)(F)F)n1 [Example 1ck, (S)-8-(2-amino-6-((R)-1-(4′-(dimethylcarbamoyl)-3-(3-methyl-1H-pyrazol-l-y)-[1,1′-biphenyl]-4-yl)-2,2,2-trifluoroethoxy)pyrimidin-4-yl)-2,8-diazaspiro[4.5]decane-3-carboxylic acid] | – |
| 0.05 to 0.3 µM | Nc1cccc(-c2cc(Cl)ccc2[C@@H](Oc2cc(N3CCC4(CC3)CNC(C(=O)O)C4)nc(N)n2)C(F)(F)F)c1 (stereo partly drawn) [Example 34f, 8-(2-amino-6-((R)-1-(3′-amino-5-chloro-[1,1′-biphenyl]-2-yl)-2,2,2-trifluoroethoxy)pyrimidin-4-yl)-2,8-diazaspiro[4.5]decane-3-carboxylic acid] | – |
| 0.05 to 0.3 µM | Cc1ccn(-c2cc(-c3ccc(C)c(F)c3)ccc2[C@@H](Oc2cc(N3CCC4(CC3)CN[C@H](C(=O)O)C4)nc(N)n2)C(F)(F)F)n1 [Example 1aq, (S)-8-(2-amino-6-((R)-2,2,2-trifluoro-1-(3′-fluoro-4′-methyl-3-(3-methyl-1H-pyrazol-1-yl)-[1,1′-biphenyl]-4-yl)ethoxy)pyrimidin-4-yl)-2,8-diazaspiro[4.5]decane-3-carboxylic acid] | – |
| 0.05 to 0.3 µM | CCOc1ccc(-c2ccc([C@@H](Oc3cc(N4CCC5(CC4)CN[C@H](C(=O)O)C5)nc(N)n3)C(F)(F)F)cc2)cc1F [Example 55dn, (S)-8-(2-amino-6-((R)-1-(4′-ethoxy-3′-fluoro-[1,1′-biphenyl]-4-yl)-2,2,2-trifluoroethoxy)pyrimidin-4-yl)-2,8-diazaspiro[4.5]decane-3-carboxylic acid] | – |
| < 0.05 µM | Cc1ccn(-c2cc(-c3ccc(C(C)(C)C)cc3)ccc2[C@@H](Oc2cc(N3CCC4(CC3)CN[C@H](C(=O)O)C4)nc(C)n2)C(F)(F)F)n1 [Example 29r, (S)-8-(6-((R)-1-(4′-(tert-butyl)-3-(3-methyl-1H-pyrazol-1-yl)-[1,1′-biphenyl]-4-yl)-2,2,2-trifluoroethoxy)-2-methylpyrimidin-4-yl)-2,8-diazaspiro[4.5]decane-3-carboxylic acid] | – |
| < 0.05 µM | Cc1ccn(-c2cc(-c3ccc(OCc4ccccc4)c(F)c3)ccc2[C@@H](Oc2cc(N3CCC4(CC3)CN[C@H](C(=O)O)C4)nc(N)n2)C(F)(F)F)n1 [Example 1bx, (S)-8-(2-amino-6-((R)-1-(4′-(benzyloxy)-3′-fluoro-3-(3-methyl-1H-pyrazol-1-yl)-[1,1′-biphenyl]-4-yl)-2,2,2-trifluoroethoxy)pyrimidin-4-yl)-2,8-diazaspiro[4.5]decane-3-carboxylic acid] | – |
